Results: patent US11591351B2, “Benzyl compound” (priority 2015, dated 2023)
In brackets after ≈: the same amount, converted by molar mass.

Settings: 25° C.; for solubility enhanced versus unprotected H-Gly-Gly-Gly-OH: CPME, relative to H-Gly-Gly-Gly-OH

CC(C)[Si](OCCCCCCCCCCCOc1ccc(COC(=O)CNC(=O)CNC(=O)CN)c(OCCCCCCCCCCCO[Si](C(C)C)(C(C)C)C(C)C)c1)(C(C)C)C(C)C [H-Gly-Gly-Gly-O-TIPS2]
solubility in cyclopentyl methyl ether (CPME): 181 mM (≈ 175 mg/mL)
solubility enhanced versus unprotected H-Gly-Gly-Gly-OH: about 5,000 fold

CC(C)[Si](OCC(CO[Si](C(C)C)(C(C)C)C(C)C)(CO[Si](C(C)C)(C(C)C)C(C)C)NC(=O)CCCCCCCCCCOc1ccc(COC(=O)CNC(=O)CNC(=O)CN)c(OCCCCCCCCCCC(=O)NC(CO[Si](C(C)C)(C(C)C)C(C)C)(CO[Si](C(C)C)(C(C)C)C(C)C)CO[Si](C(C)C)(C(C)C)C(C)C)c1)(C(C)C)C(C)C [H-Gly-Gly-Gly-O-TIPS6]
solubility in cyclopentyl methyl ether (CPME): 286 mM (≈ 522 mg/mL)
solubility enhanced versus unprotected H-Gly-Gly-Gly-OH: about 9,000 fold
